Data on 28 compounds can be found in patent US20240158370A1, “CK1 alpha AND DUAL CK1 alpha / GSPT1 DEGRADING COMPOUNDS” (Innovo Therapeutics, Inc., priority 2022, published 2024).

Assay [1] has as its target T1, CK1α (Homo sapiens, UniProt P48729+Q96SW2).
T1 construct: CSNK1A1-HiBit KI HEK293(LgBit) Cells; host or cells: HEK293(LgBit) knock-in cells
The assay can be described thus: HiBiT degradation assay, CK1α, Procedure A. The format is cell-based. The conditions noted are these: six hours. An outline of the steps:
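Luminescence from HiBiT lytic detection reports remaining tagged protein after cells sit six hours at 37° C with compound across ten concentrations (10 μM down to 0.005 μM, 0.1% DMSO). A 4-parameter curve fit gives DC50 and Ymin.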

In assay [2] the target is GSPT1 (Homo sapiens, UniProt P15170+Q96SW2). Briefly: HiBiT degradation assay, GSPT1, Procedure B (Molt 4_hGSPT1_HiBIT cells). Type of assay: cell-based. On the set-up: Molt 4_hGSPT1_HiBIT N-terminus tagged cells were generated using CRISPR technology; endogenous in cells; host or cells: Molt 4 cells, CRISPR-edited. The conditions noted are these: six hours. An outline of the steps: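 CRISPR N-terminal HiBiT-tagged Molt 4 cells at 1×10^6 cells/ml were treated 6 h at 37° C with compounds (10-point, 10 μM to 0.005 μM, 0.1% DMSO). Remaining HiBiT-GSPT1 was read by lytic luminescence; DC50 and Ymin (% remaining) from a 4-parameter fit.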
GSPT1, sequence (P15170 whole entry): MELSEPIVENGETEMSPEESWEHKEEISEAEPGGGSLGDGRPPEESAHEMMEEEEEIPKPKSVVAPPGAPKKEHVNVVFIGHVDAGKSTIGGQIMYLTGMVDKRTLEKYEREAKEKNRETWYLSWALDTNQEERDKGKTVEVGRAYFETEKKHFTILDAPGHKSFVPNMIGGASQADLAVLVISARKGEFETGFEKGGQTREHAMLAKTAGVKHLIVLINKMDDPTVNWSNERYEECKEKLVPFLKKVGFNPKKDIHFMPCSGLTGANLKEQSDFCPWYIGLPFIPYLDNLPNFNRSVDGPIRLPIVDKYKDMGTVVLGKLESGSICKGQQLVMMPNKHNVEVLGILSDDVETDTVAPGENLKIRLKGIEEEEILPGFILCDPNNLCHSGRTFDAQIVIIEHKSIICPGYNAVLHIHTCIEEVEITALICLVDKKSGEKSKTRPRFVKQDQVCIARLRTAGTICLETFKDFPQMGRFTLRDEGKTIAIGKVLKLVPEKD
GSPT1, sequence (Q96SW2 whole entry): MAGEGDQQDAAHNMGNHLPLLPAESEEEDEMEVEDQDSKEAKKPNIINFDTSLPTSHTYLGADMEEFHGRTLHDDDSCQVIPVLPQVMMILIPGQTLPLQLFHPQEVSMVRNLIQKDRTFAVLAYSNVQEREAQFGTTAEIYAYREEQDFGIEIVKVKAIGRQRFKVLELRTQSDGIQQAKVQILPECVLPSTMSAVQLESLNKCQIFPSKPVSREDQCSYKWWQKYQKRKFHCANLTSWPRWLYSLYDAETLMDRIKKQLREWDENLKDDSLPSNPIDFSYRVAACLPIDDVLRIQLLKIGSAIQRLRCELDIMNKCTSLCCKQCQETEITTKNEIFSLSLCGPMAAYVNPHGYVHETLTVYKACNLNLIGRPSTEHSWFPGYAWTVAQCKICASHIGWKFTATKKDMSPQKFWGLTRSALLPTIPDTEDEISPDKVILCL
GSPT1, sequence (Q16531 whole entry partner): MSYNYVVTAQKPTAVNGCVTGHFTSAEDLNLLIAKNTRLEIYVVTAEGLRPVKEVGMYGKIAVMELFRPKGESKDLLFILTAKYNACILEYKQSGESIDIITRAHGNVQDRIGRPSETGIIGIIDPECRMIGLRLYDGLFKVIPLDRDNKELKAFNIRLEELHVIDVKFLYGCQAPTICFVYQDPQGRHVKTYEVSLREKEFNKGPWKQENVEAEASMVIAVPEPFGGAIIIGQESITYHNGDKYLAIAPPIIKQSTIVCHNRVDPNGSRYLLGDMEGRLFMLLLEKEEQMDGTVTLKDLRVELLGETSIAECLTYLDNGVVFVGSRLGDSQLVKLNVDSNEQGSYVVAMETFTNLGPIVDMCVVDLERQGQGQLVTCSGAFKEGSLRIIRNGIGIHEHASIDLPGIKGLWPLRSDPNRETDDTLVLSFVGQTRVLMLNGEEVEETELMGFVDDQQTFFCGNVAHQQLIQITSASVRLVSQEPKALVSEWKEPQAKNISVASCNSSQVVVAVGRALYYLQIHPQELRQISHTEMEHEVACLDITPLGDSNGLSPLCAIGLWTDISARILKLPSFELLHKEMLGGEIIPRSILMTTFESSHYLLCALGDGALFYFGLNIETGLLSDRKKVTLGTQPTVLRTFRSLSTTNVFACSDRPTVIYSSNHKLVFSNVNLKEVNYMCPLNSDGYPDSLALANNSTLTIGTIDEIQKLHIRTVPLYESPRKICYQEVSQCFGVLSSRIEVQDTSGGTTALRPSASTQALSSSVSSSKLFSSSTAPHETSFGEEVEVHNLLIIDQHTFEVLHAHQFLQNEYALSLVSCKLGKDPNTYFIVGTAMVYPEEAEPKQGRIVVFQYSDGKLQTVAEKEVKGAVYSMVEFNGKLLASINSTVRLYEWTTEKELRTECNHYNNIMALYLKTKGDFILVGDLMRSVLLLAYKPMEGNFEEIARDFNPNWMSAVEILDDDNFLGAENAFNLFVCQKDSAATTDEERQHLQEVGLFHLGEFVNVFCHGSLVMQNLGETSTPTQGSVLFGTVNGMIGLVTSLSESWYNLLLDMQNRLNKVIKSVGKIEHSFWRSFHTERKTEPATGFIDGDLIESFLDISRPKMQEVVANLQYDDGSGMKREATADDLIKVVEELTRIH
(With HiBiT, luminescence reflects the tagged protein that the partner subunit can reach.)

The DC50 is the midpoint of the concentration-degradation curve.

T1 sequence (P48729 whole entry): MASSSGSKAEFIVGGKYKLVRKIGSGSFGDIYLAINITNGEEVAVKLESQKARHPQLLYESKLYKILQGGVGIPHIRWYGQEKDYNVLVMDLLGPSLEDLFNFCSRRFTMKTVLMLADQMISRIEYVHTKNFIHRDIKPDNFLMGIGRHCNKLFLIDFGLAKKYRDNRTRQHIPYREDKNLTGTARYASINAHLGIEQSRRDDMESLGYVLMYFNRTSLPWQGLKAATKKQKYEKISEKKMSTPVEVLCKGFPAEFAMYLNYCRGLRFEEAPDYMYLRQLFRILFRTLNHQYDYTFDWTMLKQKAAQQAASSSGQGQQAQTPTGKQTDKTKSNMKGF
T1 sequence (Q96SW2 whole entry): as the sequence (Q96SW2 whole entry) above
T1 sequence (Q16531 whole entry partner): as the sequence (Q16531 whole entry partner) above

As for `Cn1cc(-c2ccc3c(c2)CN(C2CCC(=O)NC2=O)C3=O)nc1C12CCN(CC1)CC2` (stereo not drawn) [Example 719, 3-(5-(1-methyl-2-(quinuclidin-4-yl)-1H-imidazol-4-yl)-1-oxoisoindolin-2-yl)piperidine-2,6-dione], in assay [1], the “CK1α Ymin” value was “E (E = >25-75% remaining)” and the DC50 was at least 25 nM. Moreover, in assay [2], the DC50 is at least 25 nM and the “GSPT1 Ymin” value is on record as “F (F = >75-100% remaining)”.
For the compound `Cn1cc(-c2ccc3c(c2)CN(C2CCC(=O)NC2=O)C3=O)nc1-c1ccc(-n2cccn2)cc1` (stereo not drawn) [Example 665], in assay [1], the “CK1α Ymin” value was “E (E = >25-75% remaining)” and the DC50 is below 25 nM. Besides, in assay [2], the DC50 is at least 25 nM and the “GSPT1 Ymin” value is “D (D = >10- 25% remaining)”.
For `Cn1nc(-c2ccc3c(c2)CN(C2CCC(=O)NC2=O)C3=O)nc1N1CCC(C(F)(F)F)CC1` (stereo not drawn) [Example 707, 3-(5-(1-methyl-5-(4-(trifluoromethyl)piperidin-1-yl)-1H-1,2,4-triazol-3-yl)-1-oxoisoindolin-2-yl)piperidine-2,6-dione], in that order: “D (D = >10- 25% remaining)”, below 25 nM, at least 25 nM and “F (F = >75-100% remaining)”.
As to `Cn1cc(-c2ccc3c(c2)CN(C2CCC(=O)NC2=O)C3=O)nc1-c1cccc(CO)c1` (stereo not drawn) [Example 636], in assay [1], the “CK1α Ymin” value is given as “C (C = 0-10% remaining)” and the half-maximal degradation concentration (DC50) was at least 25 nM. For the same compound, in assay [2], the DC50 is at least 25 nM and the “GSPT1 Ymin” value was “F (F = >75-100% remaining)”.
Consider `Cn1cc(-c2ccc3c(c2)CN(C2CCC(=O)NC2=O)C3=O)nc1-c1nn(C)c2ccccc12` (stereo not drawn) [Example 679], for which, in assay [1], the “CK1α Ymin” value is listed as “D (D = >10- 25% remaining)” and the half-maximal degradation concentration (DC50) is below 25 nM. In addition, in assay [2], the DC50 is at least 25 nM and the “GSPT1 Ymin” value is on record as “F (F = >75-100% remaining)”.
The like results for `Cc1ccc(N)cc1-c1nc(-c2ccc3c(c2)CN(C2CCC(=O)NC2=O)C3=O)cn1C` (stereo not drawn) [Example 674] were, in that order, “E (E = >25-75% remaining)”, below 25 nM, at least 25 nM and “F (F = >75-100% remaining)”.
For `Cn1cc(-c2ccc3c(c2)CN(C2CCC(=O)NC2=O)C3=O)nc1C12CC3CC(CC(C3)C1)C2` (stereo not drawn) [Example 711, 3-[5-[2-(1-adamantyl)-1-methyl-imidazol-4-yl]-1-oxo-isoindolin-2-yl]piperidine-2,6-dione], in that order: “E (E = >25-75% remaining)”, below 25 nM, at least 25 nM and “F (F = >75-100% remaining)”.
Turning to `Cn1cc(-c2ccc3c(c2)CN(C2CCC(=O)NC2=O)C3=O)nc1-c1cccc2c1CCC2` (stereo not drawn) [Example 689], in assay [1], the “CK1α Ymin” value is “C (C = 0-10% remaining)” and the DC50 is below 25 nM. Also, in assay [2], the DC50 was at least 25 nM and the “GSPT1 Ymin” value is given as “F (F = >75-100% remaining)”.
The like results for `Cc1ccc(-c2nc(-c3ccc4c(c3)CN(C3CCC(=O)NC3=O)C4=O)cn2C)c(Cl)c1` (stereo not drawn) [Example 648] were, in that order, “D (D = >10- 25% remaining)”, below 25 nM, below 25 nM and “F (F = >75-100% remaining)”.
Consider `Cn1cc(-c2ccc3c(c2)CN(C2CCC(=O)NC2=O)C3=O)nc1-c1ccc(F)c(C#N)c1` (stereo not drawn) [Example 677], for which, in assay [1], the “CK1α Ymin” value is given as “E (E = >25-75% remaining)” and the DC50 was below 25 nM. Moreover, the DC50 in assay [2] was at least 25 nM.
In the case of `Cn1ncc(-c2ccc3c(c2)CN(C2CCC(=O)NC2=O)C3=O)c1C1=CCC(F)(F)CC1` (stereo not drawn) [Example 698], in assay [1], the “CK1α Ymin” value is given as “F (F = >75-100% remaining)” and the DC50 is below 25 nM. In addition, in assay [2], the DC50 was at least 25 nM and the “GSPT1 Ymin” value is on record as “F (F = >75-100% remaining)”.
With `Cn1ncc(-c2ccc3c(c2)CN(C2CCC(=O)NC2=O)C3=O)c1C1=Cc2ccccc2C1` (stereo not drawn) [Example 700], in assay [1], the “CK1α Ymin” value is recorded as “E (E = >25-75% remaining)” and the DC50 is below 25 nM. In addition, in assay [2], the DC50 is below 25 nM and the “GSPT1 Ymin” value is “F (F = >75-100% remaining)”.
Consider `Cn1cc(-c2ccc3c(c2)CN(C2CCC(=O)NC2=O)C3=O)nc1C12CCC(CC1)CC2` (stereo not drawn) [Example 718, 3-(5-(2-(bicyclo[2.2.2]octan-1-yl)-1-methyl-1H-imidazol-4-yl)-1-oxoisoindolin-2-yl)piperidine-2,6-dione], for which, in assay [1], the “CK1α Ymin” value is “E (E = >25-75% remaining)” and the DC50 was below 25 nM. Besides, in assay [2], the DC50 was at least 25 nM and the “GSPT1 Ymin” value is “F (F = >75-100% remaining)”.
For `Cn1cc(-c2ccc3c(c2)CN(C2CCC(=O)NC2=O)C3=O)nc1-c1ccccc1N` (stereo not drawn) [Example 634], in that order: “C (C = 0-10% remaining)”, below 25 nM, at least 25 nM and “E (E = >25-75% remaining)”.
For `Cn1cc(-c2ccc3c(c2)CN(C2CCC(=O)NC2=O)C3=O)nc1-c1cccc(F)c1` (stereo not drawn) [Example 631], in that order: “C (C = 0-10% remaining)”, below 25 nM, at least 25 nM and “F (F = >75-100% remaining)”.
The like results for `Cc1ccc(Cl)cc1-c1nc(-c2ccc3c(c2)CN(C2CCC(=O)NC2=O)C3=O)cn1C` (stereo not drawn) [Example 640] were, in that order, “C (C = 0-10% remaining)”, below 25 nM, at least 25 nM and “F (F = >75-100% remaining)”.
`Cn1cc(-c2ccc3c(c2)CN(C2CCC(=O)NC2=O)C3=O)nc1-c1ccncc1` (stereo not drawn) [Example 630]: in assay [1], the “CK1α Ymin” value is “C (C = 0-10% remaining)” and the DC50 is at least 25 nM. In assay [2], the DC50 was at least 25 nM and the “GSPT1 Ymin” value was “F (F = >75-100% remaining)”.
With `Cn1cc(-c2ccc3c(c2)CN(C2CCC(=O)NC2=O)C3=O)nc1-c1cccc(OC(F)(F)F)c1` (stereo not drawn) [Example 637], in assay [1], the “CK1α Ymin” value is given as “D (D = >10- 25% remaining)” and the DC50 was below 25 nM. In addition, in assay [2], the DC50 is below 25 nM and the “GSPT1 Ymin” value is listed as “F (F = >75-100% remaining)”.
Consider `Cn1cc(-c2ccc3c(c2)CN(C2CCC(=O)NC2=O)C3=O)nc1-c1ccc(C#N)cc1F` (stereo not drawn) [Example 654], for which, in assay [1], the “CK1α Ymin” value was “D (D = >10- 25% remaining)” and the DC50 is below 25 nM. Besides, in assay [2], the DC50 is below 25 nM and the “GSPT1 Ymin” value is on record as “F (F = >75-100% remaining)”.
Turning to `Cn1cc(-c2ccc3c(c2)CN(C2CCC(=O)NC2=O)C3=O)nc1-c1cccc(C(F)F)c1` (stereo not drawn) [Example 626], in assay [1], the “CK1α Ymin” value is recorded as “C (C = 0-10% remaining)” and the DC50 was below 25 nM. In assay [2], the DC50 is at least 25 nM and the “GSPT1 Ymin” value was “F (F = >75-100% remaining)”.
The like results for `Cc1ccc(-c2nc(-c3ccc4c(c3)CN(C3CCC(=O)NC3=O)C4=O)cn2C)cc1F` (stereo not drawn) [Example 675] were, in that order, “E (E = >25-75% remaining)”, below 25 nM, below 25 nM and “F (F = >75-100% remaining)”.
The like results for `Cn1cc(-c2ccc3c(c2)CN(C2CCC(=O)NC2=O)C3=O)nc1-c1cccc(F)c1C#N` (stereo not drawn) [Example 641] were, in that order, “C (C = 0-10% remaining)”, below 25 nM, at least 25 nM and “F (F = >75-100% remaining)”.
The like results for `CCCCc1ccc(-c2nc(-c3ccc4c(c3)CN(C3CCC(=O)NC3=O)C4=O)cn2C)s1` (stereo not drawn) [Example 687] were, in that order, “D (D = >10- 25% remaining)”, below 25 nM, below 25 nM and “F (F = >75-100% remaining)”.
On to `Cn1cc(-c2ccc3c(c2)CN(C2CCC(=O)NC2=O)C3=O)nc1-c1ccc(CN2CCOCC2)cc1` (stereo not drawn) [Example 668], for which, in assay [1], the “CK1α Ymin” value is recorded as “E (E = >25-75% remaining)” and the DC50 was below 25 nM. In assay [2], the DC50 is at least 25 nM and the “GSPT1 Ymin” value is recorded as “F (F = >75-100% remaining)”.
For the compound `Cn1ncc(-c2ccc3c(c2)CN(C2CCC(=O)NC2=O)C3=O)c1C1=CCCC1` (stereo not drawn) [Example 691], in assay [1], the “CK1α Ymin” value is listed as “E (E = >25-75% remaining)” and the DC50 was below 25 nM. Moreover, in assay [2], the DC50 was at least 25 nM and the “GSPT1 Ymin” value was “F (F = >75-100% remaining)”.
For `Cn1cc(-c2ccc3c(c2)CN(C2CCC(=O)NC2=O)C3=O)nc1-c1ccc2c(c1)CCC(=O)N2` (stereo not drawn) [Example 678], in that order: “E (E = >25-75% remaining)”, at least 25 nM, below 25 nM and “F (F = >75-100% remaining)”.
The like results for `Cn1cc(-c2ccc3c(c2)CN(C2CCC(=O)NC2=O)C3=O)nc1-c1ccc2c(c1)CC(=O)N2` (stereo not drawn) [Example 722] were, in that order, “D (D = >10- 25% remaining)”, at least 25 nM, below 25 nM and “F (F = >75-100% remaining)”.
For `Cn1ncc(-c2ccc3c(c2)CN(C2CCC(=O)NC2=O)C3=O)c1C1=COCCC1` (stereo not drawn) [Example 695], in that order: “E (E = >25-75% remaining)”, below 25 nM, below 25 nM and “F (F = >75-100% remaining)”.
